From ChEMBL document CHEMBL4819155, “Phenolic compounds from the leaves of Crataegus pinnatifida Bge. var. major N.E.Br. And their lipid-lowering effects” (2021)
Activity calls are given as the source filed them. No cut-off for these calls is given here.

Assays:
[1] = system: HepG2; experiment: Hypolipidemic activity against oleic acid/palmitic acid-induced hyperlipidemia in human HepG2 cells assessed as reduction in triglycerides content relative to control group; type: functional
[2] = system: HepG2; experiment: Hypolipidemic activity against oleic acid/palmitic acid-induced hyperlipidemia in human HepG2 cells assessed reduction in total cholesterol level at 10 uM; type: functional, cell-based
[3] = system: HepG2; experiment: Hypolipidemic activity against oleic acid/palmitic acid-induced hyperlipidemia in human HepG2 cells assessed as decrease in triglycerides level at 0.001 to 10 uM; type: functional, cell-based; conditions: dose 0.001-10 µM
[4] = system: HepG2; experiment: Hypolipidemic activity against oleic acid/palmitic acid-induced hyperlipidemia in human HepG2 cells assessed as triglycerides content measured per gm of protein; type: functional
[5] = system: HepG2; experiment: Hypolipidemic activity against oleic acid/palmitic acid-induced hyperlipidemia in human HepG2 cells assessed as reduction in triglycerides content; type: functional, cell-based
[6] = system: HepG2; experiment: Hypolipidemic activity against oleic acid-induced lipid accumulation in human HepG2 cell model assessed reduction in total cholesterol level; type: functional, cell-based
[7] = system: HepG2; experiment: Hypolipidemic activity against oleic acid/palmitic acid-induced hyperlipidemia in human HepG2 cells assessed reduction in total cholesterol level at 0.001 to 10 uM; type: functional, cell-based; conditions: dose 0.001-10 µM
[8] = system: HepG2; experiment: Hypolipidemic activity against oleic acid/palmitic acid-induced hyperlipidemia in human HepG2 cells assessed as decrease in triglycerides level at 0.001 to 1 uM; type: functional, cell-based; conditions: dose 0.001-1 µM
[9] = system: HepG2; experiment: Hypolipidemic activity against oleic acid/palmitic acid-induced hyperlipidemia in human HepG2 cells assessed as decrease in triglycerides level at 0.01 to 1 uM; type: functional, cell-based; conditions: dose 0.01-1 µM

| Structure (SMILES) | Activity [4] | Activity [5] | also measured |
| --- | --- | --- | --- |
| O=c1cc(-c2ccc(O)cc2)oc2c([C@@H]3O[C@H](CO)[C@@H](O[C@@H]4O[C@H](CO)[C@@H](O)[C@H](O)[C@H]4O)[C@H](O)[C@H]3O)c(O)cc(O)c12 | 0.28 mmol | – | inhibition (INH) [1]: 35.34%; Activity [2]: Active; Activity [3]: Active |
| O=C1C[C@@H](c2ccc(O)c(O)c2)c2c(cc3c(c2O)C[C@@H](O)[C@@H](c2ccc(O)c(O)c2)O3)O1 | – | Active | – |
| CCC(C)(C)C(=O)O[C@H]1C[C@@H](C)C=C2C=C[C@H](C)[C@H](CC[C@@H]3C[C@@H](O)CC(=O)O3)[C@H]21 | – | Active | Activity [6]: Active |
| O=C(/C=C/c1ccc(O)c(O)c1)O[C@@H]1C[C@](O)(C(=O)O)C[C@@H](O)[C@H]1O | – | Active | – |
| Oc1cc(O)c2c(c1)O[C@H](c1ccc(O)c(O)c1)[C@@H](O)C2 | – | Active | – |
| O=c1c(O[C@@H]2O[C@H](CO)[C@H](O)[C@H](O)[C@H]2O)c(-c2ccc(O)c(O)c2)oc2cc(O)cc(O)c12 | – | Active | – |
| Oc1cc(O)c2c(c1)O[C@H](c1ccc(O)c(O)c1)[C@H](O)C2 | – | Active | – |
| O=c1c(O)c(-c2ccc(O)c(O)c2)oc2cc(O)cc(O)c12 | – | Active | – |
| O=C1C[C@@H](c2ccc(O)c(O)c2)c2c(cc(O)c3c2O[C@H](c2cc(O)cc(O)c2)[C@H](O)C3)O1 | 0.28 mmol | – | inhibition (INH) [1]: 34.92%; Activity [7]: Dose-Dependent Effect; Activity [8]: Dose-Dependent Effect |
| O=c1cc(-c2ccc(O)cc2)oc2c([C@@H]3O[C@H](CO)[C@@H](O)[C@H](O)[C@H]3O)c(O)cc(O)c12 | 0.283 mmol | – | inhibition ([1]; dose or concentration not given here): 34.6%; Activity [7]: Dose-Dependent Effect; Activity [9]: Dose-Dependent Effect |
| O=c1c(O[C@@H]2O[C@H](CO)[C@@H](O)[C@H](O)[C@H]2O)c(-c2ccc(O)c(O)c2)oc2cc(O)cc(O)c12 [ISOQUERCETIN] | 0.308 mmol | – | inhibition (INH) [1]: 30.42%; Activity [6]: inactive; Activity [3]: Active |
| C[C@@H]1O[C@@H](O[C@@H]2[C@@H](O)[C@H](O)[C@@H](CO)O[C@H]2c2c(O)cc(O)c3c(=O)cc(-c4ccc(O)cc4)oc23)[C@H](O)[C@H](O)[C@H]1O | – | Active | – |
| COc1cc(CO[C@@H]2O[C@H](CO)[C@@H](O)[C@H](O)[C@H]2O)cc(OC)c1OC | – | Active | – |
